Calls of active or inactive are those of the source. The rule behind the calls is not given here.
How the values were obtained:
Triticum aestivum [1] = assay: Toxicity in Triticum aestivum cv. Nohrin-61 (wheat) assessed as seedling death under green house at 0.5 kg/ha at 25 degC measured after 4 weeks by crop selectivity assay; format: organism-based; conditions: in vivo, 672 h
Amaranthus viridis [2] = assay: Herbicidal activity against Amaranthus viridis assessed as seedling death under green house at 0.25 kg/ha at 25 degC measured after 4 weeks; format: functional, organism-based
Amaranthus viridis [3] = assay: Herbicidal activity against Amaranthus viridis assessed as seedling death under green house at 0.5 kg/ha at 25 degC measured after 4 weeks; format: functional, organism-based
Glycine max [4] = assay: Toxicity in Glycine max cv. Tamahomare (soybean) assessed as seedling death under green house at 0.5 kg/ha at 25 degC measured after 4 weeks by crop selectivity assay; format: organism-based; conditions: in vivo, 672 h
Gossypium hirsutum [5] = assay: Toxicity in Gossypium hirsutum cv. Hakushuu (cotton) assessed as seedling death under green house at 0.25 kg/ha at 25 degC measured after 4 weeks by crop selectivity assay; format: organism-based; conditions: in vivo, 672 h
Triticum aestivum [6] = assay: Toxicity in Triticum aestivum cv. Nohrin-61 (wheat) assessed as seedling death under green house at 0.25 kg/ha at 25 degC measured after 4 weeks by crop selectivity assay; format: organism-based; conditions: in vivo, 672 h
Gossypium hirsutum [7] = assay: Toxicity in Gossypium hirsutum cv. Hakushuu (cotton) assessed as seedling death under green house at 0.5 kg/ha at 25 degC measured after 4 weeks by crop selectivity assay; format: organism-based; conditions: in vivo, 672 h
Glycine max [8] = assay: Toxicity in Glycine max cv. Tamahomare (soybean) assessed as seedling death under green house at 0.25 kg/ha at 25 degC measured after 4 weeks by crop selectivity assay; format: organism-based; conditions: in vivo, 672 h
Persicaria lapathifolia [9] = assay: Herbicidal activity against Persicaria lapathifolia assessed as seedling death under green house at 0.5 kg/ha at 25 degC measured after 4 weeks; format: functional, organism-based
Digitaria ciliaris [10] = assay: Herbicidal activity against Digitaria ciliaris assessed as seedling death under green house at 0.25 kg/ha at 25 degC measured after 4 weeks; format: functional, organism-based
Persicaria lapathifolia [11] = assay: Herbicidal activity against Persicaria lapathifolia assessed as seedling death under green house at 0.25 kg/ha at 25 degC measured after 4 weeks; format: functional, organism-based
Echinochloa crus-galli [12] = assay: Herbicidal activity against Echinochloa crus-galli (barnyard grass) assessed as seedling death under green house at 0.5 kg/ha at 25 degC measured after 4 weeks; format: functional, organism-based
Amaranthus viridis [13] = assay: Herbicidal activity against Amaranthus viridis assessed as seedling death under green house at 1 kg/ha at 25 degC measured after 4 weeks; format: functional, organism-based
Digitaria ciliaris [14] = assay: Herbicidal activity against Digitaria ciliaris assessed as seedling death under green house at 1 kg/ha at 25 degC measured after 4 weeks; format: functional, organism-based
Echinochloa crus-galli [15] = assay: Herbicidal activity against Echinochloa crus-galli (barnyard grass) assessed as seedling death under green house at 0.25 kg/ha at 25 degC measured after 4 weeks; format: functional, organism-based
Digitaria ciliaris [16] = assay: Herbicidal activity against Digitaria ciliaris assessed as seedling death under green house at 0.5 kg/ha at 25 degC measured after 4 weeks; format: functional, organism-based
Echinochloa crus-galli [17] = assay: Herbicidal activity against Echinochloa crus-galli (barnyard grass) assessed as seedling death under green house at 1 kg/ha at 25 degC measured after 4 weeks; format: functional, organism-based
Persicaria lapathifolia [18] = assay: Herbicidal activity against Persicaria lapathifolia assessed as seedling death under green house at 1 kg/ha at 25 degC measured after 4 weeks; format: functional, organism-based
Triticum aestivum [19] = assay: Toxicity in Triticum aestivum cv. Nohrin-61 (wheat) assessed as seedling death under green house at 1 kg/ha at 25 degC measured after 4 weeks by crop selectivity assay; format: organism-based; conditions: in vivo, 672 h
Glycine max [20] = assay: Toxicity in Glycine max cv. Tamahomare (soybean) assessed as seedling death under green house at 1 kg/ha at 25 degC measured after 4 weeks by crop selectivity assay; format: organism-based; conditions: in vivo, 672 h
Gossypium hirsutum [21] = assay: Toxicity in Gossypium hirsutum cv. Hakushuu (cotton) assessed as seedling death under green house at 1 kg/ha at 25 degC measured after 4 weeks by crop selectivity assay; format: organism-based; conditions: in vivo, 672 h
Digitaria ciliaris [22] = assay: Herbicidal activity against Digitaria ciliaris assessed as seedling death under green house at 2 kg/ha at 25 degC measured after 4 weeks; format: functional, organism-based
Echinochloa crus-galli [23] = assay: Herbicidal activity against Echinochloa crus-galli (barnyard grass) assessed as seedling death under green house at 2 kg/ha at 25 degC measured after 4 weeks; format: functional, organism-based

Structure (SMILES) | Activity (Triticum aestivum [1]) | Activity (Amaranthus viridis [2]) | Activity (Amaranthus viridis [3]) | Activity (Glycine max [4]) | Activity (Gossypium hirsutum [5]) | Activity (Triticum aestivum [6]) | Activity (Gossypium hirsutum [7]) | Activity (Glycine max [8]) | Activity (Digitaria ciliaris [10]) | Activity (Echinochloa crus-galli [12]) | Activity (Amaranthus viridis [13]) | Activity (Digitaria ciliaris [14]) | Activity (Digitaria ciliaris [16]) | Activity (Echinochloa crus-galli [17]) | further results
CN(C(=O)COc1nnc(C(F)(F)F)s1)c1ccccc1 | Non-toxic | inactive | inactive | Non-toxic | Non-toxic | Non-toxic | Non-toxic | Non-toxic | inactive | – | – | – | – | – | Activity (Persicaria lapathifolia [9]): inactive; Activity (Persicaria lapathifolia [11]): inactive
Cc1c(C(F)(F)F)noc1OCC(=O)N(C)c1ccccc1Br | – | – | Active | – | Non-toxic | Non-toxic | – | Non-toxic | Active | Active | Active | Active | Active | Active | Activity (Echinochloa crus-galli [15]): Active; Activity (Persicaria lapathifolia [18]): Active
Cc1c(C(F)(F)F)noc1OCC(=O)N(C)c1cccc(F)c1 | – | Active | Active | – | Non-toxic | Non-toxic | – | Non-toxic | Active | Active | Active | Active | Active | Active | Activity (Echinochloa crus-galli [15]): Active; Activity (Persicaria lapathifolia [18]): Active
CN(C(=O)COc1nc2ccccc2s1)c1ccccc1 [MEFENACET] | Non-toxic | inactive | – | Non-toxic | Non-toxic | Non-toxic | Non-toxic | Non-toxic | – | – | – | – | – | – | Activity (Persicaria lapathifolia [9]): inactive; Activity (Persicaria lapathifolia [11]): inactive
CN(C(=O)COc1onc(C(F)(F)F)c1-c1ccccc1)c1ccccc1 | Non-toxic | – | – | Non-toxic | – | – | Non-toxic | – | – | Active | – | Active | Active | Active | Activity (Triticum aestivum [19]): Non-toxic; Activity (Glycine max [20]): Non-toxic; Activity (Gossypium hirsutum [21]): Non-toxic
CCCCCCN(C)C(=O)COc1onc(C(F)(F)F)c1C | – | – | – | – | – | – | – | – | – | – | – | – | – | – | Activity (Digitaria ciliaris [22]): Active; Activity (Echinochloa crus-galli [23]): Active
CN(C(=O)COc1cc(C(F)(F)F)no1)c1ccccc1 | Non-toxic | – | – | Non-toxic | – | – | Non-toxic | – | – | – | – | Active | Active | Active | Activity (Gossypium hirsutum [21]): Non-toxic
Cc1c(C(F)(F)F)noc1OCC(=O)N(C)c1ccccc1 | Non-toxic | – | – | Non-toxic | – | – | Non-toxic | – | – | Active | Active | Active | Active | Active | Activity (Triticum aestivum [19]): Non-toxic; Activity (Glycine max [20]): Non-toxic
